What is called ED50 is the dose at which the effect has come halfway, by size or by number of responders. High values mean a need for a large dose, low ones an effect at a small dose. As a reminder, the AUC(0-inf) is total exposure, with the tail of the curve extrapolated. Lower therefore signals less exposure. As a reminder, the AUC(0-t) is the area under the concentration-time curve up to a stated or last time point. What is called Cmax is the highest concentration seen after dosing.

Data set [1] is described as follows: Animal model of infection of Compound 4: MPT, ED50. The class given is in vivo, mice. To be noted: Mus musculus, MPT (mouse protection test model).
Data set [2] in a line: Animal model of infection of Compound 4: RLI, 2Log Red. The data set is classed as in vivo, rats. To be noted: RLI (rat lung infection model), ED50.
Data set [3] in a line: Rat PK of amino acid prodrug after IV/PO administration. The class given is in vivo. To be noted: plasma, 10 mg/kg IV, prodrug itself, read-out: AUC0-∝.
Data set [4] is described as follows: Tissue accumulation of Compound 1 at the site of infection (infected skin tissue). To be noted: mouse, po, 50 mg/kg.

`CC[C@H]1OC(=O)[C@H](C)C(=O)[C@H](C)[C@@H](O[C@@H]2O[C@H](C)C[C@H](N(C)C)[C@H]2O)[C@](C)(OC)C[C@@H](C)C(=O)[C@H](C)[C@H]2N(CCCCn3cnc(-c4cccnc4)c3)C(=O)O[C@]12C` [Telithromycin, telithromycin]: the 50% effective dose (ED50) came to 11 mg/kg in data set [1] (S. aureus Smith) and 10 mg/kg in data set [1] (S. pneumoniae 7701). Besides, the “2Log Red” value in data set [2] (H. influenzae 1435) worked out at 49 mg/kg; in data set [2] (H. influenzae 3643) it was 78 mg/kg; in data set [2] (H. influenzae S1280), 56 mg/kg.
Take `CCC(=O)/N=C1\[C@H](C)C[C@@]2(C)OC/C(=N/OCc3ccc(-c4nc(NC(=O)[C@@H](N)CC(C)C)cs4)cn3)CO[C@H]([C@H]1C)[C@](C)(O)[C@@H](CC)OC(=O)[C@@](C)(F)C(=O)[C@H](C)[C@H]2O[C@@H]1O[C@H](C)C[C@H](N(C)C)[C@H]1O` [Compounds 6]: the AUC in data set [3] was 0.21 µg·h/mL.
Regarding `CCC(=O)/N=C1\[C@H](C)C[C@@]2(C)OC/C(=N/OCc3ccc(-c4nc(N)cs4)cn3)CO[C@H]([C@H]1C)[C@](C)(O)[C@@H](CC)OC(=O)[C@@](C)(F)C(=O)[C@H](C)[C@H]2O[C@@H]1O[C@H](C)C[C@H](N(C)C)[C@H]1O` [Compound 1], in data set [4] (infected skin abscess), the AUC(0-inf) worked out at 617000 µg·h/mL, the AUC(0-t) came out at 257000 µg·h/mL and the Cmax came to 9030 µg/mL. In data set [4] (plasma), this molecule returned an AUC(0-inf) of 24500 µg·h/mL, an AUC(0-t) of 24400 µg·h/mL and a peak concentration (Cmax) of 5120 µg/mL. Also, in data set [4] (uninfected skin), the total exposure AUC(0-inf) turned out to be 66600 µg·h/mL, the AUC(0-t) was found to be 54600 µg·h/mL and the maximum concentration (Cmax) was determined as 3800 µg/mL.

Values taken from patent US20130165641A1, “6,11-BRIDGED BIARYL MACROLIDES” (Enanta Pharmaceuticals, Inc., priority 2007, published 2013).
